From US20070248995A1, “Molecules” (priority 2004, published 2007)
Read-outs that look alike come from different tables or passages of the source.

Experiments:
rat NK1r = target: T1, rat NK1r (Rattus norvegicus, UniProt P14600); assay: Inhibition of NK1 receptor activation, intracellular Ca2+ mobilization (FLIPR) in CHO cells; type: cell-based; settings: pKB ± SD, submaximal (60%) concentration of Substance P
T1 construct: expressed in transfected cells
Description: (§1) The activity of a compound to inhibit NK1r activation measured as NK1r-mediated increase in intracellular Ca^2+ was assessed by the following procedure:
(§2) Before the FLIPR assay the cells of each 96-well plate were loaded with the Ca^2+-sensitive dye Fluo-3 (TEFLABS 0116) at 4 μM in a loading media consisting of Nut Mix F12 (HAM) with Glutamax I, 22 mM HEPES, 2.5 mM Probenicid (Sigma P-8761) and 0.04% Pluronic F-127 (Sigma P-2443) and kept in the dark for 1 hour in a 37° C. CO2-incubator. The cells were then washed three times in assay buffer (Hanks balanced salt solution (HBSS) containing 20 mM HEPES, 2.5 mM Probenicid and 0.1% BSA) using a multi-channel pipette leaving them in 150 μl at the end of the last wash. Serial dilutions of a test compound in assay buffer (final DMSO concentration kept below 1%) were automatically pipetted by FLIPR (Fluorometric Imaging Plate Reader) into each test well and the fluorescence intensity was recorded (excitation 488 nm and emission 530 nm) by the FLIPR CCD camera for a 2-min pre-incubation period. 50 μl of the Substance P (NK1 specific), NKA (NK2 specific), or Pro-7-NKB (NK3 specific) agonist solution (final concentration equivalent to an approximate EC60 concentration) was then added by FLIPR into each well already containing 200 μl assay buffer (containing the test compound or vehicle) and the fluorescence was continuously monitored for another 2 min. The response was measured as the peak relative fluorescence after agonist addition and IC50s were calculated from ten-point concentration-response curves for each compound. The IC50s were then converted to pKB values with the following formula: KB=IC50/1+(EC60 conc. of agonist used in assay/EC50 agonist) pKB=−log KB Binding Assay for NK1 Receptors

gerbil NK1r [1] = target: T2, gerbil NK1r (Meriones unguiculatus, UniProt Q5DUB1)
Description: Cells were detached with Accutase® solution, harvested in PBS containing 5% FBS by centrifugation, washed twice in PBS and resuspended to a concentration of 1×10^8 cells/ml in Tris-HCl 50 mM, KCl 300 mM, EDTA-N2 10 mM pH 7.4 (4° C.). Cell suspensions were homogenized with a UltraTurrax 30 s 12.000 rpm. The homogenates were centrifuged at 38,000×g (4° C.) and the pellet resuspended in Tris-HCl 50 mM pH 7.4. The homogenization was repeated once and the homogenates were incubated on ice for 45 min. The homogenates were again centrifuged as described above and resuspended in Tris-HCl 50 mM pH 7.4. This centrifugation step was repeated 3 times in total. After the last centrifugation step the pellet was resuspended in Tris-HCl 50 mM and homogenized with Dual Potter, 10 strokes to a homogenous solution, and aliquots were removed for protein determination. Membranes were aliquoted and frozen at −80° C. until use.
The radioligand binding assay was performed at room temperature in 96-well microtiter plates (No-binding Surface Plates, Corning 3600) with a final assay volume of 200 μl/well in incubation buffer (50 mM Tris buffer (pH 7.4 RT) containing 0.1% BSA, 40 mg/L Bacitracin, complete EDTA-free protease inhibitor cocktail tablets 20 pills/L (Roche) and 3 mM MnCl2).
Competition binding curves were done by adding increasing amounts of the test compound. […]
(§3) The membranes were then collected by rapid filtration on Filtermat B(Wallac), presoaked in 0.1% BSA and 0.3% Polyethyleneimine (Sigma P-3143), using a Micro 96 Harvester (Skatron Instruments, Norway). […] Meltilex scintillator sheets were melted on to filters using a Microsealer (Wallac, Finland) and the filters were counted in a β-Liquid Scintillation Counter (1450 Microbeta, Wallac, Finland).
(§4) The Ki value for the unlabeled ligand was calculated using the Cheng-Prusoff equation (Biochem. Pharmacol. 22:3099-3108, 1973), where L is the concentration of the radioactive ligand used and Kd is the affinity of the radioactive ligand for the receptor, determined by saturation binding. […]

gerbil NK1r [2] = target: T2, gerbil NK1r; assay: Inhibition of NK1 receptor activation, intracellular Ca2+ mobilization (FLIPR) in CHO cells; type: cell-based; design: Full-length PCR was performed using primers #NK1-16 and #NK1-17; expressed in transfected cells; settings: pKB ± SD, submaximal (60%) concentration of Substance P
Description: as §1, §2

gerbil NK1r [3] = target: T2, gerbil NK1r; assay: Gerbil foot tap (GFT, NK1r-specific test model); type: in vivo, Mongolian gerbil; design: tissue Charles River, Germany (animals); host or cells: living Mongolian gerbil, central nervous system (in vivo); settings: from brain homogenate concentration of antagonist at 50% inhibition, used in the Cheng-Prusoff equation
Description: Male Mongolian gerbils (60-80 g) were purchased from Charles River, Germany. On arrival, they were housed in groups of ten, with food and water ad libitum in temperature- and humidity-controlled holding rooms. The animals were allowed at least 7 days to acclimatize to the housing conditions before experiments. Each animal was used only once and killed immediately after the experiment by heart punctuation or a lethal overdose of pentobarbital sodium.
Gerbils were anaesthetized with isoflurane. Potential CNS-permeable NK1 receptor antagonists were administered intraperitoneally, intravenously or subcutaneously.
The gerbils were lightly anaesthetized using isoflurane and a small incision was made in the skin over bregma. 10 pmol of ASMSP, a selective NK1receptor agonist, was administered icv in a volume of 5 μl using a Hamilton syringe with a needle 4 mm long. The wound was clamped shut and the animal was placed in a small plastic cage and allowed to wake up. The cage was placed on a piece of plastic tubing filled with water and connected to a computer via a pressure transducer. The number of hind feet taps was recorded.

human NK1r [4] = target: T3, human NK1r (Homo sapiens, UniProt P25103)
Description: Cells were detached with Accutase® solution, harvested in PBS containing 5% FBS by centrifugation, washed twice in PBS and resuspended to a concentration of 1×10^8 cells/ml in Tris-HCl 50 mM, KCl 300 mM, EDTA-N2 10 mM pH 7.4 (4° C.). Cell suspensions were homogenized with a UltraTurrax 30 s 12.000 rpm. The homogenates were centrifuged at 38,000×g (4° C.) and the pellet resuspended in Tris-HCl 50 mM pH 7.4. The homogenization was repeated once and the homogenates were incubated on ice for 45 min. The homogenates were again centrifuged as described above and resuspended in Tris-HCl 50 mM pH 7.4. This centrifugation step was repeated 3 times in total. […]
as §3, §4

human NK1r [5] = target: T3, human NK1r; assay: Inhibition of NK1 receptor activation, intracellular Ca2+ mobilization (FLIPR) in CHO cells; type: cell-based; design: expressed in transfected cells; settings: pKB ± SD, submaximal (60%) concentration of Substance P
Description: as §1
CO2-incubator. The cells were then washed three times in assay buffer (Hanks balanced salt solution (HBSS) containing 20 mM HEPES, 2.5 mM Probenicid and 0.1% BSA) using a multi-channel pipette leaving them in 150 μl at the end of the last wash. […] 50 μl of the Substance P (NK1 specific), NKA (NK2 specific), or Pro-7-NKB (NK3 specific) agonist solution (final concentration equivalent to an approximate EC60 concentration) was then added by FLIPR into each well already containing 200 μl assay buffer (containing the test compound or vehicle) and the fluorescence was continuously monitored for another 2 min. The response was measured as the peak relative fluorescence after agonist addition and IC50s were calculated from ten-point concentration-response curves for each compound. The IC50s were then converted to pKB values with the following formula: KB=IC50/1+(EC60 conc. of agonist used in assay/EC50 agonist) pKB=−log KB Binding Assay for NK1 Receptors

T1 sequence (P14600 whole entry): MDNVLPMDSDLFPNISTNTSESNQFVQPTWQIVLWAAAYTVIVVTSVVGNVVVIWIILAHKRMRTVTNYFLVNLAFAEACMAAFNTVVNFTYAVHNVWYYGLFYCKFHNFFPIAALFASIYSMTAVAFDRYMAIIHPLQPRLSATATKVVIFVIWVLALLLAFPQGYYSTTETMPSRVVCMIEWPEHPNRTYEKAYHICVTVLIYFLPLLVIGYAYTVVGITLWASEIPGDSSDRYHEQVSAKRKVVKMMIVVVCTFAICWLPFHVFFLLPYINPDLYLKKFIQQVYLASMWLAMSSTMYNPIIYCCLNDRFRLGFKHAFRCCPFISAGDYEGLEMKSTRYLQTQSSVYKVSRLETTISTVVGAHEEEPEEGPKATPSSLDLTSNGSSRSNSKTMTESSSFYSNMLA
T2 sequence (Q5DUB1 whole entry): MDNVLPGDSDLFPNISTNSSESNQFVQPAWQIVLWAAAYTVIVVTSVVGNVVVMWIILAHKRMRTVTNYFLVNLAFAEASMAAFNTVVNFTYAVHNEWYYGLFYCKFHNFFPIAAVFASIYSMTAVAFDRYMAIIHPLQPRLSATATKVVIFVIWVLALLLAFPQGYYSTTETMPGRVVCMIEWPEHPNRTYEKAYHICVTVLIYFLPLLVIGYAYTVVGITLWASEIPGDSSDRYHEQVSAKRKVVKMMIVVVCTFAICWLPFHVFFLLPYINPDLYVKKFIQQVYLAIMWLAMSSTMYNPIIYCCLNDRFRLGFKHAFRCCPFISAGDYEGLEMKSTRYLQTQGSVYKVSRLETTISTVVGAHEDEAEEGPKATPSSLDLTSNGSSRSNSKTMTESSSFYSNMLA
T3 sequence (P25103 whole entry): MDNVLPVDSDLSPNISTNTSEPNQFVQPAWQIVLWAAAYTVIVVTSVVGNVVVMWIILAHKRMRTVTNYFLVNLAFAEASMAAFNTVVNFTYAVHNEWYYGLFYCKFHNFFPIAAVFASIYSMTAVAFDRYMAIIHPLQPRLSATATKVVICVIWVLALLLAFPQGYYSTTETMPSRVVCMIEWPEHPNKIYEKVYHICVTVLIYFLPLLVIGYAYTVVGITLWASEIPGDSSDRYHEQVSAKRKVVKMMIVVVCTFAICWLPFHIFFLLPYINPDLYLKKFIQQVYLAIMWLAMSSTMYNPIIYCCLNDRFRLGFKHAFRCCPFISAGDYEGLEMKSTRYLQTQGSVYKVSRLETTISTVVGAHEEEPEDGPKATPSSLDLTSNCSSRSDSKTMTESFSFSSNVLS

Row | rat NK1r pKB (rat NK1r) | Ki (human NK1r [4]) [nM] | human NK1r pKB (human NK1r [5]) | Ki (gerbil NK1r [1]; read-out: Gerbil NK1 Ki, competition binding, CHO cell membranes) [nM] | gerbil NK1r pKB (gerbil NK1r [2]) | SMILES | Kb (rat NK1r) [nM] | Ki (gerbil NK1r [1]) [nM] | Kb (gerbil NK1r [2]) [nM] | gerbil NK1r pKBapp. (in vivo GFT apparent pKB) (gerbil NK1r [3])
1 |  |  |  |  |  | COc1ccccc1CN[C@H]1CCCN[C@H]1c1ccccc1 [CP 99994] | 1230 | 0.81 | 1.15 | 8.1
2 |  |  |  |  |  | C[C@@H](O[C@H]1OCCN(Cc2n[nH]c(=O)[nH]2)[C@H]1c1ccc(F)cc1)c1cc(C(F)(F)F)cc(C(F)(F)F)c1 [MK 869, aprepitant] | 55 | 0.16 | 1.55 | 8.9
3 | <6 | 0.31 | 8.53 ± 0.41 | 0.38 | 9.00 ± 0.25 | CN(C[C@@H](CCN1CCC(c2ccccc2[S@+](C)[O-])CC1)c1ccc(Cl)c(Cl)c1)C(=O)c1cc(C#N)cc2ccccc12 [ZD 6021] |  |  |  | 8.5
